Values quoted from earlier work, collected in patent publication US5989583A, “Solid lipid compositions of lipophilic compounds for enhanced oral bioavailability” (Pharmos Ltd., priority 1996, dated 1999).

What was measured:
[1] = 20 mg THC in a sesame oil formulation
[2] = for Water solubility (in words): water / aqueous solutions
[3] = test system: patients with severe heart failure; conditions: 40 patients with severe heart failure, long term treatment
[4] = test system: periodontal disease; conditions: supplements containing CoQ10
[5] = test system: cultured cerebellar neurons; conditions: age-related and excitotoxin-induced degeneration

CCCCCc1cc(O)c2c(c1)OC(C)(C)[C@@H]1CCC(C)=C[C@@H]21 [THC, tetrahydrocannabinol]
maximal plasma levels after oral dosing [1]: around 10 ng/ml

CCCCCc1cc(O)c2c(c1)OC(C)(C)[C@@H]1CCC(C)=C[C@@H]21 [Δ^1 -THC, Δ^1 -tetrahydrocannabinol]
Water solubility (in words) [2]: a few micrograms/ml or less

CCCCCc1cc(O)c2c(c1)OC(C)(C)[C@@H]1CC=C(C)C[C@@H]21 [Δ^6 -THC, Δ^6 -tetrahydrocannabinol]
Water solubility (in words) [2]: a few micrograms/ml or less

C=C(C)[C@@H]1CCC(C)=C[C@H]1c1c(O)cc(CCCCC)cc1O [cannabidiol]
Water solubility (in words) [2]: a few micrograms/ml or less

COC1=C(OC)C(=O)C(C/C=C(\C)CC/C=C(\C)CC/C=C(\C)CC/C=C(\C)CC/C=C(\C)CC/C=C(\C)CC/C=C(\C)CC/C=C(\C)CC/C=C(\C)CCC=C(C)C)=C(C)C1=O [CoQ10, 2,3-dimethoxy-5-methyl-6-decaprenyl-1,4-benzoquinone]
oral bioavailability / systemic availability: very low
patients showing improvement in their condition [3]: 69%
Effect on periodontal disease [4]: the progress of the disease was not only stopped, but accelerated tissue healing was initiated as well
Protection of neurons against degeneration [5]: protect cultured cerebellar neurons against age-related and excitotoxin-induced degeneration
Water solubility (in words) [2]: practically insoluble in water

CCCCCCC(C)(C)c1cc(O)c2c(c1)OC(C)(C)[C@H]1CC=C(CO)C[C@H]21 [Dexanabinol, (+)-(3S, 4S) -7-hydroxy-Δ^6-tetra hydrocannabinol-1,1-dimetylheptyl]
oral bioavailability / systemic availability: poor oral bioavailability
Water solubility ([2]; water): less than 50 μg/ml

CCCCCc1cc(O)c2c(c1)OC(C)(C)c1ccc(C)cc1-2 [cannabinol]
Water solubility (in words) [2]: a few micrograms/ml or less
